From ChEMBL document CHEMBL1201862, “PubChem BioAssay data set” (2004)
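Growth conditions: 96-well plates. Treatment: test compound, 48 hours, 5 concentrations. Analysis: linear interpolation between bracketing concentrations; unreached endpoints set to highest concentration. GI50 is the concentration that inhibits growth by half.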 Calls of active or inactive are those of the source. Cut-off read from the data, not from the text of the source: active = GI50 up to about 1.1 µM and inactive = higher.

Legend:
Assay in all cases: NCI tumour cell line growth inhibition, 48 h
[1] = test system: UO-31
[2] = test system: XF498
[3] = test system: UACC-257
[4] = test system: SF-539
[5] = test system: OVCAR-4
[6] = test system: HOP-62
[7] = test system: HOP-92
[8] = test system: NCI-H226
[9] = test system: RXF 631
[10] = test system: HL-60
[11] = test system: NCI-H460
[12] = test system: IGROV-1
[13] = test system: SR
[14] = test system: M14
[15] = test system: KM12
[16] = test system: MOLT-4
[17] = test system: NCI-H522
[18] = test system: SN12C
[19] = test system: SK-MEL-5
[20] = test system: LXFL 529
[21] = test system: RPMI-8226
[22] = test system: RXF 393
[23] = test system: EKVX
[24] = test system: A549
[25] = test system: SW-620
[26] = test system: CAKI-1
[27] = test system: OVCAR-5
[28] = test system: DLD-1
[29] = test system: U-251
[30] = test system: SK-OV-3
[31] = test system: SK-MEL-2
[32] = test system: K562
[33] = test system: CCRF-CEM
[34] = test system: NCI-H23
[35] = test system: LOX IMVI
[36] = test system: DMS-114
[37] = test system: HCC 2998
[38] = test system: HOP-18
[39] = test system: SNB-78
[40] = test system: OVCAR-3
[41] = test system: M19-MEL
[42] = test system: UACC-62
[43] = test system: SNB-75
[44] = test system: Malme-3M
[45] = test system: KM-20L2
[46] = test system: A498
[47] = test system: SF-268
[48] = test system: DMS-273
[49] = test system: TK-10
[50] = test system: COLO 205
[51] = test system: SNB-19
[52] = test system: SF-295
[53] = test system: HT-29
[54] = test system: ACHN
[55] = test system: SK-MEL-28
[56] = test system: HCT-15
[57] = test system: HCT-116
[58] = test system: 786-0

For `CCCCCCc1cc(C(=O)Nc2ccc(Cl)cc2)nc(S)n1`, the GI50 [1] was > 100 µM (inactive), the GI50 [2] was > 10 µM (inactive) and the GI50 [3] was > 100 µM (inactive). The GI50 [4] was > 100 µM (inactive), the GI50 [5] was > 100 µM (inactive) and the GI50 [6] was > 100 µM (inactive). The GI50 [7] was > 100 µM (inactive), the GI50 [8] was > 10 µM (inactive) and the GI50 [9] was > 100 µM (inactive). The GI50 [10] was > 100 µM (inactive), the GI50 [11] was > 10 µM (inactive) and the GI50 [12] was > 100 µM (inactive). The GI50 [13] was > 100 µM (inactive), the GI50 [14] was > 100 µM (inactive) and the GI50 [15] was > 100 µM (inactive). The GI50 [16] was > 100 µM (inactive), the GI50 [17] was > 100 µM (inactive) and the GI50 [18] was > 100 µM (inactive). The GI50 [19] was > 100 µM (inactive), the GI50 [20] was > 100 µM (inactive) and the GI50 [21] was > 100 µM (inactive). For the same compound, the GI50 [22] was > 10 µM (inactive), the GI50 [23] was > 100 µM (inactive) and the GI50 [24] was > 100 µM (inactive). For the same compound, the GI50 [25] was > 100 µM (inactive), the GI50 [26] was > 100 µM (inactive) and the GI50 [27] was 31.1 µM (inactive). The GI50 [28] was > 10 µM (inactive), the GI50 [29] was > 100 µM (inactive) and the GI50 [30] was > 100 µM (inactive). For the same compound, the GI50 [31] was > 100 µM (inactive), the GI50 [32] was > 100 µM (inactive) and the GI50 [33] was > 100 µM (inactive). For the same compound, the GI50 [34] was > 100 µM (inactive).
`C=CCCCCCCCCCCCC1CCC(CC)N1` (stereo not given) was tested, and the GI50 [35] was 9.66 µM (inactive), the GI50 [1] was 11.2 µM (inactive) and the GI50 [3] was 13.9 µM (inactive). The GI50 [4] was 10.6 µM (inactive), the GI50 [5] was 4.79 µM (inactive) and the GI50 [6] was 12.3 µM (inactive). The GI50 [36] was 5 µM (inactive), the GI50 [37] was 3.37 µM (inactive) and the GI50 [38] was 12.6 µM (inactive). For the same compound, the GI50 [8] was 28.5 µM (inactive), the GI50 [39] was 14.9 µM (inactive) and the GI50 [9] was 6.19 µM (inactive). The GI50 [10] was 3.05 µM (inactive), the GI50 [11] was 17.7 µM (inactive) and the GI50 [12] was 10.1 µM (inactive). The GI50 [40] was 9.44 µM (inactive), the GI50 [41] was 5.15 µM (inactive) and the GI50 [42] was 14.2 µM (inactive). The GI50 [13] was 2.47 µM (inactive), the GI50 [14] was 12.1 µM (inactive) and the GI50 [15] was 3.87 µM (inactive). For the same compound, the GI50 [16] was 4.06 µM (inactive), the GI50 [43] was 14.4 µM (inactive) and the GI50 [17] was 3.78 µM (inactive). For the same compound, the GI50 [18] was 11.5 µM (inactive), the GI50 [44] was 16.3 µM (inactive) and the GI50 [19] was 10.2 µM (inactive). For the same compound, the GI50 [45] was 4.04 µM (inactive), the GI50 [20] was 12.7 µM (inactive) and the GI50 [46] was 19.5 µM (inactive). The GI50 [47] was 20.6 µM (inactive), the GI50 [21] was 8.28 µM (inactive) and the GI50 [48] was 2.33 µM (inactive). For the same compound, the GI50 [49] was 16.8 µM (inactive), the GI50 [22] was 4.86 µM (inactive) and the GI50 [23] was 15.5 µM (inactive). The GI50 [50] was 3.37 µM (inactive), the GI50 [24] was 10.3 µM (inactive) and the GI50 [25] was 11.4 µM (inactive). The GI50 [26] was 11.2 µM (inactive), the GI50 [27] was 10.6 µM (inactive) and the GI50 [51] was 15.5 µM (inactive). For the same compound, the GI50 [28] was 3.72 µM (inactive), the GI50 [29] was 10.9 µM (inactive) and the GI50 [52] was 13.8 µM (inactive). For the same compound, the GI50 [30] was 15.1 µM (inactive), the GI50 [53] was 3.67 µM (inactive) and the GI50 [54] was 15.7 µM (inactive). For the same compound, the GI50 [31] was 13.2 µM (inactive), the GI50 [55] was 15.7 µM (inactive) and the GI50 [32] was 4.7 µM (inactive). For the same compound, the GI50 [33] was 8.3 µM (inactive), the GI50 [34] was 14.4 µM (inactive) and the GI50 [56] was 3.4 µM. For the same compound, the GI50 [57] was 6.04 µM (inactive) and the GI50 [58] was 9.1 µM (inactive).
